The values below are quoted from earlier work in patent US20190269662A1, “SOLID COMPOSITIONS OF ACTIVES, PROCESSES FOR PREPARING SAME AND USES OF SUCH SOLID COMPOSITIONS” (The University of Liverpool, priority 2018, published 2019).

Molecules are shown by their SMILES.

For this data set the following is noted: background statement; cited from earlier work.

For the molecule `Cc1nnc(C(C)C)n1[C@@H]1C[C@H]2CC[C@@H](C1)N2CC[C@H](NC(=O)C1CCC(F)(F)CC1)c1ccccc1` [maraviroc], the oral bioavailability entry was “approximately 33%”.
